“Also recorded” adds a separate entry of the source.
Experiments:
male Swiss-Weber mice = assay: Mouse hindquarter (muscle pouch) ectopic bone formation assay, BBP; format: in vivo; details: for Bone Area / Bone Mineral Content: densitometry
Experimental: Methods: The osteogenic activity of material was tested using male Swiss-Weber mice aged 8 to 10 weeks were used (Taconic Farms, Germantown, N.Y.). Prior to the assay, the BBP was solublized and lyophilized into 2 mg of atelocollagen. The dried material was placed in a #5 gelatin capsule and sterilized by exposure to chloroform vapor. To conduct the assay, mice were anesthetized using 1% isoflurane delivered in oxygen at 2 l/min through a small animal anesthesia machine (VetEquip, Pleasanton, Calif.). Animals were affixed to a surgery board and the fur over the hindquarters shaved. The skin was cleaned with 70% ethanol and a midline incision made over the spine adjacent to the hindquarters. Blunt dissection with scissors was used to expose the quadriceps muscle on one side. A small pouch was made in the muscle using the point of scissors and the #5 capsule containing the test material was inserted into the pouch. The skin was then closed with three 11 mm Michel surgical clips and the animal returned to its cage for monitoring.
After 21 days the animals were killed and the hindquarter removed. Radiological examination of the specimens was accomplished using a small parts X-Ray cabinet (Faxitron, Wheeling, Ill.). For quantization of bone formation, bone area and the bone mineral content (BMC) of an area of interest encompassing the site of ectopic bone formation was determined using a PIXImus2 small animal densitometer (GE Lunar, Madison, Wis.). Specimens were then placed in buffered formalin and submitted for routine processing for histological examination.

rhBMP-2 [1] = target: T1, rhBMP-2 (Homo sapiens, UniProt P12643); assay: Residence time study: BBP and rhBMP-2 on collagen sponges in muscle pouches; format: in vivo, rodents
T1 sequence (P12643 283-396): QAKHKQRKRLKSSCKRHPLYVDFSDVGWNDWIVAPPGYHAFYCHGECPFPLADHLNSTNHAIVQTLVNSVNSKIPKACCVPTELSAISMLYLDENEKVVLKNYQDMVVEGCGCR
Text: Methods: Labeled rhBMP-2 was mixed with BBP or vehicle and applied to collagen sponges. The sponges were implanted into muscle pouches in rodents. At specified times (1, 3 and 7 days), the implants were removed and the amount of BMP remaining determined. Four animals were used in each group.

Lewis rats [2] = assay: Rat posterolateral intertransverse process spinal fusion L4-L5 (Example 7); format: in vivo; details: week 8
Experimental: Methods: Five groups of 50 Lewis rats each underwent posterolateral intertransverse process spinal fusion at vertebrae L4-L5 with implanted: BBP (500 μg) (Group 1); BBP (1000 μg) (Group 2), collagen plus low dose BMP-2 (1 μg) (Group 3), BBP (500 μg) plus low dose BMP (1 μg) (Group 4) and BBP (1000 μg) plus low dose BMP (1 μg) (Group 5). Control groups included a negative group (decortication) and positive control group (collagen plus 3 μg BMP).
All rats underwent post-operative radiography at 2, 4, 6, and 8 weeks. Manual spinal palpation was performed at 8 weeks, after the time of sacrifice. Bone formation was assessed in histological sections stained with H&E.

rhBMP-2 [3] = target: T1, rhBMP-2; assay: Surface plasmon resonance, interaction of rhBMP-2 and BBP; format: binding; details: BBP decyclized by prior reduction with β-mercaptoethanol
Experimental: Buffers and chips for the procedure were obtained from Biacore. […] This material was then attached to a CM-5 sensor chip using reagents and procedures supplied by the manufacturer. Running butter was 10 mM HEPES, pH 7.4, 150 mM NaCl, 3 mM EDTA, 0.005% Surfactant P20, The peptide was dissolved in running buffer at concentrations ranging from 1×10^−5 to 1×10^−4 M. Flow rates from 5 to 50 μl/mm and injection volumes of 20 to 100 μl were employed. The regeneration solution was […] glycine-HCl, pH 2.0.

Lewis rats [4] = assay: Rat posterolateral intertransverse process spinal fusion L4-L5 (Example 8); format: in vivo; details: for Histology, fused / Manual Palpation, fused: 8th week
Experimental: Methods: Posterolateral intertransverse process spinal fusion at L4-L5 was performed in five treatment groups of Lewis rats each, and collagen sponges (5×5×13 mm) were implanted into the surgical sites.
Each sponge was placed in a sterile microfuge tube and either a suspension of BBP (500 μg or 1000 μg) in water or sterile water alone was applied. The sponges were allowed to air dry in a tissue culture hood overnight and then placed at −70° C. for an hour and lyophilized overnight. The tubes (with small holes in the top to allow for lyophilization) were placed in autoclave pouches and sealed. The materials were then sterilized by exposure to chloroform vapor for at least 4 hours.
The posterolateral intertransverse process spinal fusion at L4-L5 in the rat is a well established procedure in our laboratory 13-17. Briefly, the animal was anesthetized with isofluane and the surgical site was shaved and propped with Betadyne and alcohol. A 3 cm longitudinal midline incision was made through the skin and subcutaneous tissue over L4-L5 down to the lumbodorsal fascia. Then, two separate 2 cm longitudinal paramedial incisions were made in the erector spinae muscles on both sides of L4-L5. The transverse processes of L4-L5 were exposed, cleaned of soft tissue, and decorticated with a high-speed burr. The site was irrigated with saline and the therapeutic test material was placed. The lumbodorsal fascia was closed with 4-0 Prolene (Ethicon, Somerville, N.J.). The skin was closed with 4-0 Prolene and meticulous post-operative care was provided.
These were compared to control groups. Fusion was evaluated by radiology, histology and manual palpation tests. Animals were sacrificed 8 weeks after surgery.
The results of the surgeries were assessed radiologically, histologically, and by manual palpation. Posteroanterior radiographs were obtained using a small parts X-ray cabinet (Faxitron Corp., Wheeling, Ill.) on each animal at 2, 4, 6 and 8 weeks. Radiograms were evaluated by three independent observers employing the following standardized scale: 0: no fusion; 1: incomplete fusion with bone formation present; and 2: complete fusion. The scores from the three observes were added and a total of 5 or 6 was regarded as “fused”. Manual palpation of the spine was performed at the time of sacrifice at 8 weeks. To simulate the gold standard for determining fusion in humans, exploration and manual palpation of the fusion mass were performed after death. The level fused was manually palpated with Adson forceps and compared with the adjacent nonfused levels. Each specimen was graded as fused or non-fused by three independent observers. The spine was designated as “not fused” if any of the three observers graded the spine as not fused. After manual palpation, the specimens were decalcified using standard 10% decalcifying solution HCl (Cal-Ex, Fisher Scientific, Fairlawn, N.J.), washed with running tap water, then transferred to 75% ethanol. Sagittal sections were cut carefully at the level of the transverse process. The specimens were imbedded in paraffin and sections of each specimen obtained. These sections were stained with hematoxylin and eosin. They were evaluated by an independent observer as fused and not fused.
The proportions of subjects in each group judged to be “fused” were compared in sequential two group comparisons with Fisher's exact test using SPSS software. A p score of less than or equal to 0.05 was set for statistical significance.

Lewis rats [5] = assay: Rat posterolateral intertransverse process spinal fusion L4-L5 (Example 6); format: in vivo; details: Group 1: BBP 500 μg only, week 8
Experimental: All rats underwent post-operative radiography at 2, 4, 6, and 8 weeks. Manual spinal palpation was performed at 8 weeks, the time of sacrifice. Bone formation was assessed in histological sections stained with H&E.

[6] = BBP 50 μg implanted with 5 μg rhBMP-2, 21 days
[7] = BBP 500 μg implanted with 5 μg rhBMP-2, 21 days

increase of rhBMP-2 retention (factor) (rhBMP-2 [1]; collagen sponges in muscle pouches, 1, 3 and 7 days, versus vehicle): about two | retention of rhBMP-2 (fold) (rhBMP-2 [1]; for up to seven days in vitro and in vivo): two | binding to rhBMP-2 (rhBMP-2 [3]): no significant binding
SMILES: CSCC[C@@H]1NC(=O)[C@H](CCCNC(=N)N)NC(=O)[C@H](C(C)C)NC(=O)[C@H]([C@@H](C)O)NC(=O)[C@H](CO)NC(=O)[C@H](CCCNC(=N)N)NC(=O)[C@@H](N)CSSC[C@@H](C(=O)O)NC(=O)[C@H](CCCNC(=N)N)NC(=O)[C@H](C(C)C)NC(=O)[C@H](Cc2c[nH]c3ccccc23)NC(=O)[C@H](C(C)C)NC(=O)[C@H](CC(N)=O)NC(=O)[C@H](CCC(N)=O)NC(=O)[C@H](C(C)C)NC(=O)[C@H](CCC(N)=O)NC(=O)[C@H](CCC(=O)O)NC(=O)[C@H](C)NC(=O)[C@H](CO)NC1=O [BBP]
calcification after implantation of BBP alone (male Swiss-Weber mice; 500 μg BBP in atelocollagen, mouse muscle, 21 days, radiogram/histology): induced calcification; also recorded: dystrophic calcification primarily associated with intramuscular adipose tissue; also recorded: ectopic dystrophic calcification formation | amount of ectopic bone formed versus rhBMP-2 alone (male Swiss-Weber mice; 500 μg BBP with 5 μg rhBMP-2, densitometry): consistently greater | Bone Area (male Swiss-Weber mice; [6]): 0.159 ± 0.0606 cm^2 | Bone Mineral Content (male Swiss-Weber mice; [6]): 0.00388 ± 0.0017 g | Bone Area (male Swiss-Weber mice; [7]): 0.226 ± 0.0270 cm^2 | Bone Mineral Content (male Swiss-Weber mice; [7]): 0.00528 ± 0.00068 g | fusion by manual palpation (Lewis rats [2]; Group 1: BBP 500 μg only): 0% | fusion by manual palpation (Lewis rats [2]; Group 2: BBP 1000 μg only): 0% | fusion with BBP alone (Lewis rats [4]; 500 μg or 1000 μg BBP alone, any time point): none of the animals in low and high dose BBP groups developed fusion at any time points; also recorded: did not provide fusion | radiological examination, fused, Week 2nd (Lewis rats [4]; high dose BBP only (1000 μg)): 0% | radiological examination, fused, Week 4th (Lewis rats [4]; high dose BBP only (1000 μg)): 0% | radiological examination, fused, Week 6th (Lewis rats [4]; high dose BBP only (1000 μg)): 0% | radiological examination, fused, Week 8th (Lewis rats [4]; high dose BBP only (1000 μg)): 0% | Histology, fused (Lewis rats [4]; high dose BBP only (1000 μg)): 0% | Manual Palpation, fused (Lewis rats [4]; high dose BBP only (1000 μg)): 0% | radiological examination, fused, Week 2nd (Lewis rats [4]; low dose BBP only (500 μg)): 0% | radiological examination, fused, Week 4th (Lewis rats [4]; low dose BBP only (500 μg)): 0% | radiological examination, fused, Week 6th (Lewis rats [4]; low dose BBP only (500 μg)): 0% | radiological examination, fused, Week 8th (Lewis rats [4]; low dose BBP only (500 μg)): 0% | Histology, fused (Lewis rats [4]; low dose BBP only (500 μg)): 0% | Manual Palpation, fused (Lewis rats [4]; low dose BBP only (500 μg)): 0% | Fusion Rates (Lewis rats [5]): 14%
